Test results taken from US5013544A, “Contraceptive methods and compositions” (The Victoria University of Manchester, priority 1988, dated 1991).

Experiments:
human semen (sperm) = test: Inhibition of motility of human sperm, ~1 min, in Tyrodes T6 medium (Example 1); assay type: cell-based; settings: about 1 minute, 25 degrees C., Tyrodes T6 + human albumin
Protocol: (§1) Chlorhexidine, as the diacetate salt, and/or nonoxynol-9 (50 μl. of an appropriate aqueous dilution) was dissolved in Tyrodes T6 balanced salt solution supplemented with 4 mg./ml. of human albumin. The solution was prepared and used immediately, by being mixed with 50 μl. of fresh human semen with a sperm concentration of at least 50 million per ml, and a motility of at least 80%, and incubated at 25 degrees C. for about 1 minute.
(§2) The motility of the sperm so treated was measured by one of two methods:
(§3) (1) If the concentration of chlorhexidine caused protein precipitation, motility was estimated by phase contrast microscopy at 200× magnification in a 10 μm deep counting chamber.
(§4) (2) If the solution remained optically clear, motility was measured by laser Doppler spectroscopy. This technique involves the analysis by auto-correlation of the fraction of the scattered laser light which contains the Doppler-shifted frequencies generated by interaction between the incident laser and the sperm head.

sperm (semen) = test: Spermicidal action in isotonic aqueous sucrose: % of sperm motile 1 minute after contact (Example 2); assay type: cell-based, human
Protocol: as §1, §2, §3, §4
The procedure of Example 1 was repeated, using solutions of the specified compounds (nonoxenol-9 and chlorhexidine diacetate) in an isotonic aqueous solution of sucrose, the spermicidal action of nonoxenol-9 and chlorhexidine diacetate, derived from five examinations, each being measured in duplicate. The concentrations are the final values in semen.
The values expressed are the percentages, expressed as a mean, of the sperm which are motile 1 minute after contact with the spermicide.

[1] = Stability of spermicidal activity of chlorhexidine / composition in solution; assay type: physicochemical
sperm = test: Site of spermicidal action (vagina, cervical mucus); settings: vagina and cervical mucus; no test described

Molecule | % Inhibition of motility (human semen (sperm); 0.5 mg./ml.) | inhibition at 2000 µg/mL (human semen (sperm); Sperm, 1 min, 2 mg./ml.) [%] | percentage of the sperm which are motile 1 minute after contact (mean) (sperm (semen); Chlorhexidine 0.5 mg/ml, nonoxynol-9 0, untreated 50.37) [%] | percentage of the sperm which are motile 1 minute after contact (mean) (sperm (semen); Chlorhexidine 1.0 mg/ml, nonoxynol-9 0, untreated 50.37) [%] | percentage of the sperm which are motile 1 minute after contact (mean) (sperm (semen); Chlorhexidine 2.0 mg/ml, nonoxynol-9 0, untreated 50.37) [%] | percentage of the sperm which are motile 1 minute after contact (mean) (sperm (semen); Chlorhexidine 5.0 mg/ml, nonoxynol-9 0, untreated 50.37) [%] | loss of spermicidal activity ([1]; chloride ion at physiological concentrations) | tendency to lose spermicidal activity ([1]; in some circumstances and formulations, associated with certain anions) | stability of aqueous solution ([1]; isotonic aqueous sucrose solution) | site of spermicidal action (sperm) | % Inhibition of motility (human semen (sperm); 2 mg./ml.) [%] | percentage of the sperm which are motile 1 minute after contact (mean) (sperm (semen); Nonoxynol-9 0.2 mg/ml, chlorhexidine 0, untreated 50.37) [%] | percentage of the sperm which are motile 1 minute after contact (mean) (sperm (semen); Nonoxynol-9 0.4 mg/ml, chlorhexidine 0, untreated 50.37) [%] | percentage of the sperm which are motile 1 minute after contact (mean) (sperm (semen); Nonoxynol-9 0.6 mg/ml, chlorhexidine 0, untreated 50.37) [%]
[H]/N=C(\N/C(=N/[H])NCCCCCCNC(=N)NC(=N)Nc1ccc(Cl)cc1)Nc1ccc(Cl)cc1 [Chlorhexidine, 1:6-di-(N-p-chlorophenyl-diguanido)-hexane] | ZERO | 5 | 39.32 | 16.14 | 10.02 | 0 | lose its spermicidal activity in less than two hours | marked tendency to lose its spermicidal activity | remained stable for greater than three days | acts as a spermicide both in the vagina and in the cervical mucus |  |  |  | 
Nonoxynol-9 | ZERO |  |  |  |  |  |  |  |  | only spermicidal in the vagina and does not enter the cervical mucus | 100 | 31.09 | 0 | 0
